Like-named read-outs stand apart in the source and are kept apart here.
How the values were obtained:
[1] = cited from earlier work
[2] = tested on: alopecia areata; assay: Human clinical trials of CTP-543 in patients suffering from alopecia areata; type: in vivo
[3] = Drug-drug interaction study of Compound (I) (CTP-543) and itraconazole in healthy volunteers, plasma pharmacokinetics; type: in vivo, human
[4] = 10 mg ruxolitinib with vs without ketoconazole 200 mg twice a day, healthy volunteers
[5] = 12 mg Compound (I) alone (Reference), healthy volunteers, plasma
[6] = 12 mg Compound (I) with vs without itraconazole

| AUC(0-Tlast) [3, 5] [ng·h/mL] | AUC(0-∞) [3, 5] [ng·h/mL] | AUC(0-Tlast) ([3]; 12 mg Compound (I) with itraconazole 200 mg (Test), healthy volunteers, plasma) [ng·h/mL] | increase in the AUC as a result of dosing with itraconazole [3, 6] [%] | increase in the Cmax as a result of dosing with itraconazole [3, 6] [%] | half-life ([3]; Compound (I) without itraconazole) [min] | Cmax ([3]; human, plasma, 12 mg) [ng/mL] | half-life ([3]; human, plasma, 12 mg, read-out: t1/2 (converted)) [min] | half-life ([3]; human, plasma, read-out: half-life (converted)) [min] | SMILES | half-life ([1]; 10 mg ruxolitinib dosed with ketoconazole) [h] | AUC increase as a result of dosing with ketoconazole [1, 4] [%] | Cmax increase as a result of dosing with ketoconazole [1, 4] [%] | half-life ([1]; 10 mg ruxolitinib without ketoconazole) [h] | hair growth in patients suffering from alopecia areata [2] |
| --- | --- | --- | --- | --- | --- | --- | --- | --- | --- | --- | --- | --- | --- | --- |
|  |  |  |  |  |  |  |  |  | N#CC[C@H](C1CCCC1)n1cc(-c2ncnc3[nH]ccc23)cn1.O=P(O)(O)O [ruxolitinib, (R)-3-(4-(7H-pyrrolo[2,3-d]pyrimidin-4-yl)-1H-pyrazol-1-yl)-3-cyclopentylpropanenitrile phosphate] | 6.0 | 91 | 33 | 3.7 |  |
| 1326.80 | 1332.48 | 1679.53 | ~27 | ~13 | 251 | 266 | 248 | 277 | [2H]C1([2H])C([C@@H](CC#N)n2cc(-c3ncnc4[nH]ccc34)cn2)C([2H])([2H])C([2H])([2H])C1([2H])[2H] [Compound (I), (R)-3-(4-(7H-pyrrolo[2,3-d]pyrimidin-4-yl)-1H-pyrazol-1-yl)-3-(cyclopentyl-2,2,3,3,4,4,5,5-d8)propanenitrile] |  |  |  |  | stimulate hair growth |

Reference: patent US12285432B2, “Treatment of hair loss disorders with deuterated JAK inhibitors” (Sun Pharmaceutical Industries, Inc., priority 2021, dated 2025)
